From ChEMBL document CHEMBL5338769, “Discovery of Norisoboldine Analogue III11 as a Novel and Potent Aryl Hydrocarbon Receptor Agonist for the Treatment of Ulcerative Colitis” (J Med Chem, 2023)
The source made the active and inactive calls. No cut-off for these calls is given here.

What was measured:
[1] = target: T1, Aryl hydrocarbon receptor (Mus musculus, UniProt P30561); test: Induction of AhR nuclear translocation in C57BL/6 mouse naive T cells at 1 to 10 uM incubated for 48 hrs by immunofluorescence based inverted microscopic analysis; conditions: t cell, dose 1-10 µM
T1 sequence (P30561 whole entry): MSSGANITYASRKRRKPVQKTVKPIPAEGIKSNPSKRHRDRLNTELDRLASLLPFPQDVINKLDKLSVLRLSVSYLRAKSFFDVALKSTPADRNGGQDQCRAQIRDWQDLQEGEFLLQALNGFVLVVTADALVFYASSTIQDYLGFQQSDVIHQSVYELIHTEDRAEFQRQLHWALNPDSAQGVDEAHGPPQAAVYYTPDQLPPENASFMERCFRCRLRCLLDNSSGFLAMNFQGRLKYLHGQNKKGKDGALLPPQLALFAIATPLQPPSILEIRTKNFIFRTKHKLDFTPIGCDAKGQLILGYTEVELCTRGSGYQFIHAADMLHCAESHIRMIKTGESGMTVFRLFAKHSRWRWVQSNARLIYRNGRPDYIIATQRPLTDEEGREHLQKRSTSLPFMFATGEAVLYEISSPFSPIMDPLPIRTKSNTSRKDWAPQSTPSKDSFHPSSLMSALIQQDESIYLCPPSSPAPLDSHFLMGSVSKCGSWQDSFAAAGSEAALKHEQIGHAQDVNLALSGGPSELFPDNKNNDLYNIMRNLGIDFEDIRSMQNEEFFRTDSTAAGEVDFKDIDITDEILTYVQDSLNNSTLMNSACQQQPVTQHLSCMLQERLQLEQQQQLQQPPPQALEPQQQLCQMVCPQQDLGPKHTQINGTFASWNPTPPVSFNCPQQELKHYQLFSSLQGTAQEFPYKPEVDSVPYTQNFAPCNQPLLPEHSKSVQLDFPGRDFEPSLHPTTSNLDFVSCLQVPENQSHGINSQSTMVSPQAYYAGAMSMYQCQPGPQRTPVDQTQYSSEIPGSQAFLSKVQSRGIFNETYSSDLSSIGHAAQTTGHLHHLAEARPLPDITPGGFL

[2] = Protein binding in rat plasma at 10.74 ug/ml of total concentration measured after 12 hrs by ultrafiltration based HPLC analysis; assay type: ADME, cell-free; conditions: at 10.74 µg/mL, read-out: PPB (converted)
[3] = Protein binding in rat plasma at 21.67 ug/ml of total concentration measured after 12 hrs by ultrafiltration based HPLC analysis; assay type: ADME, cell-free; conditions: at 21.67 µg/mL, read-out: PPB (converted)
[4] = Half-life in Sprague-Dawley rat at 3 mg/kg, iv measured upto 1440 min by LC-MS/MS analysis; assay type: ADME, organism-based; conditions: in vivo
[5] = MRT in Sprague-Dawley rat at 3 mg/kg, iv measured upto 1440 min by LC-MS/MS analysis; assay type: ADME, organism-based; conditions: in vivo
[6] = Tmax in Sprague-Dawley rat at 30 mg/kg, po measured upto 1440 min by LC-MS/MS analysis; assay type: ADME, organism-based; conditions: in vivo
[7] = Apparent oral clearance in Sprague-Dawley rat at 30 mg/kg measured upto 1440 min by LC-MS/MS analysis; assay type: ADME, organism-based; conditions: in vivo, 24 h
Mus musculus [8] = test: Anti-colitis activity against DSS-induced ulcerative colitis C57BL/6 mouse model assessed as decrease in colon MPO activity at 10 to 20 mg/kg, po administered once a day for 10 days; assay type: functional, organism-based; conditions: dose 10-20 mg/kg, time 10.0 day
[9] = Induction of cell differentiation in C57BL/6 mouse naive regulatory T cells assessed as increase in cell frequency at 0.3 uM incubated for 72 hrs by flow cytometric analysis (reference value: 24.9%); assay type: functional
Mus musculus [10] = test: Anti-colitis activity against DSS-induced ulcerative colitis C57BL/6 mouse model assessed as increase in IL-10 mRNA level by measuring fold change at 10 mg/kg, po administered once a day for 10 days by qRT-PCR analysis; assay type: functional; conditions: time 10 day

SMILES: COc1cc2c3c(c1)-c1ccc(O)cc1CC3NCC2 (stereo not given)
- Activity [1]: Active
- fraction unbound at 12 h, 10.74 ug/ml [2]: 0.134
- fraction unbound at 12 h, 21.67 ug/ml [3]: 0.149
- half-life [4]: 2.24 h
- MRT [5]: 3.07 h
- Tmax [6]: 2 h
- CL/F [7]: 0 mg/(ng/ml)/min
- Activity (Mus musculus [8]): Active
- Activity [9]: 26.7%
- fold change (FC) (Mus musculus [10]): 1.26
